Data set [1] has as its system IL-6. In words: IL-6 expression in conditioned media of LPS stimulated dermal fibroblasts by ELISA. Format: cell-based. To be noted: Fibroblast, 24 h, read-out: IC50, suppression of IL-6 expression. Here is the method: Dermal fibroblasts were treated with LPS+S1 or S2 at 5-40 μg/ml for 24 h. […] Ibuprofen suppressed IL-6 expression with IC50 of ˜40 μg/ml.
The test system of data set [2] is dermal fibroblasts. As to conditions: 24 h.
For data set [3], the system named is MCP-1. Briefly: MCP-1 expression in conditioned media of LPS stimulated dermal fibroblasts by ELISA. Format: cell-based. To be noted: at 40-160 μg/ml.

Values after ≈ are worked out from the molar mass of the structure shown.

Take `CC(C)Cc1ccc(C(C)C(=O)O)cc1` (stereo not drawn) [Ibuprofen]: the IC50 in data set [1] is about 40 µg/mL (≈ 194 µM). The “concentration with cytotoxic effect (no adverse effects / no cytotoxicity up to the value)” value in data set [2] is over 160 µg/mL. For the same molecule, the “suppression of MCP-1 expression” value in data set [3] is recorded as about 10 fold.

These data come from US20140154342A1, “SANDALWOOD OIL AND ITS USES RELATED TO SKIN DISORDERS” (SANTALIS PHARMACEUTICALS INC., priority 2011, published 2014).
